Test results reported in US3936439A, “2,6-Diaminonebularine derivatives” (Takeda Chemical Industries, Ltd., priority 1972, dated 1976).
Like-named read-outs stand apart in the source and are kept apart here.

Assays:
rat platelets = experiment: Test for the action to inhibit the aggregation of rat platelets caused by adenosine-5'-diphosphate (method of Born and Cross); type: cell-based; settings: read-out: Inhibitory action (%)
Text: Test for the action to inhibit the aggregation of rat platelets caused by adenosine-5'-diphosphate

coronary artery = experiment: Test for coronary dilating action (intracoronary administration, coronary blood flow in anaesthetized dogs); type: in vivo; settings: 10 μg./dog directly into the coronary artery, potency of adenosine taken as unity
Experimental: Each of dogs weighing 7 to 17 kilograms was anaesthetized with pentobarbital sodium salt (30 mg./kg., intravenously) and under supportive respiration, a left thoractomy was performed at the fifth interspace.
The heart of each animal was exposed and perfused with the blood guided from the animal's own left carotid artery to the left coronary artery circumflex through a polyethylene catheter. The coronary blood flow was measured with an electromagnetic flowmeter interposed in the external phase of the circuitry.
Each of the test compounds was administered directly into the coronary artery through the polyethylene catheter at a dose of 10 μg./dog. The potency of each compound was expressed with the potency of adenosine being taken as unity.

[1] = rat platelet-rich plasma, ADP-induced aggregation, concentration 15 μg/ml
[2] = rat platelet-rich plasma, ADP-induced aggregation, concentration 74 μg/ml
[3] = rat platelet-rich plasma, ADP-induced aggregation, concentration 370 μg/ml

SMILES | inhibition at 15 µg/mL (rat platelets; [1]) | inhibition at 74 µg/mL (rat platelets; [2]) | inhibition at 370 µg/mL (rat platelets; [3]) | Maximum coronary flow (coronary artery) | inhibition at 15 µg/mL (rat platelets; Rattus norvegicus, Platelet) | inhibition at 74 µg/mL (rat platelets; Rattus norvegicus, Platelet) | inhibition at 370 µg/mL (rat platelets; Rattus norvegicus, Platelet)
Nc1nc(N)c2ncn([C@@H]3O[C@H](CO)[C@@H](O)[C@H]3O)c2n1 [2,6-Diaminonebularine, 2,6-diaminonebularine] | 0% | 0% | 0% | 0.50 |  |  | 
Nc1ncnc2c1ncn2[C@@H]1O[C@H](CO)[C@@H](O)[C@H]1O [Adenosine] |  |  |  | 1.00 | 0% | 0% | 0%
Nc1nc(NC2CCCCC2)nc2c1ncn2[C@@H]1O[C@H](CO)[C@@H](O)[C@H]1O [N^2 -Cyclohexyl-2,6-diaminonebularine, N^2-cyclohexyl-2,6-diaminonebularine] | -32% | -60% | -95% | 2.20 |  |  | 
CCNc1nc(N)c2ncn([C@@H]3O[C@H](CO)[C@@H](O)[C@H]3O)c2n1 [N^2 -Ethyl-2,6-diaminonebularine, N^2-ethyl-2,6-diaminonebularine] | -11% | -21% | -40% | 0.91 |  |  | 
Nc1nc(Nc2ccccc2)nc2c1ncn2[C@@H]1O[C@H](CO)[C@@H](O)[C@H]1O [N^2 -Phenyl-2,6-diaminonebularine, N^2-phenyl-2,6-diaminonebularine] | -38% | -52% | -85% | 6.75 |  |  | 
COc1ccc(Nc2nc(N)c3ncn([C@@H]4O[C@H](CO)[C@@H](O)[C@H]4O)c3n2)cc1 [N^2-(p-methoxyphenyl)-2,6-diaminonebularine] |  |  |  | 2.37 |  |  | 
